Our source for the DC50 and IC50 values is patent publication US20260295053A1, “COMPOUNDS FOR DEGRADATION AND INHIBITION OF KRAS (G12D) PROTEIN” (Shenzhen Ionova Life Science Co., Ltd., priority 2023, published 2026).

Each structure is given as a SMILES string.

Broadly, the DC50 is the midpoint of the concentration-degradation curve. Read a high DC50 as a less potent degrader. As usually defined, the IC50 is the concentration that gives 50% inhibition. High values mean a need for much substance, low ones inhibition by little substance.

One experiment concerns the target T1, KRAS (G12D) (Homo sapiens, UniProt P01116, G12D).
T1 construct: in-cell western with KRAS G12D antibody after 24 h
Put plainly: KRAS (G12D) cellular degradation assay in AsPC-1 cells. It is filed as cell-based. Particulars: 24 hours, antibody fluorescence (Odyssey CLX), DC50 half-maximal degradation concentration. In short, it runs like this:
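Proliferation IC50 comes from CellTiter Glo luminescence after 6 days' exposure of AsPC-1 (3,500 cells/well) to 1:3 dilutions from […] to 1.5 nM. KRAS G12D DC50 derives from in-cell immunofluorescence normalised to β-actin after 24 h treatment of near-confluent AsPC-1 cells over the same range.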

The subject of a further experiment is AsPC-1 cells. Put plainly: AsPC-1 cell proliferation assay (CellTiter Glo). In kind it is cell-based. Particulars: 6 days. The protocol: ASPC-1 and PK-59 cellular assays ASPC-1 (ATCC cat. CRL-1682) and PK-59 (Nanjing Cobioer, Cat. No. CBP61184) were used in KRAS cellular degradation, pERK inhibition and proliferation assays. The two cell lines were maintained following vendor's instructions. For monitoring KRAS (G12D) cellular degradation and pERK biomarker inhibition, cells were seeded into a 96-well plate with 22,000 and 16,000 cells/well for assays in ASPC-1 and PK-59, respectively. Cells were incubated at 37° C. with 5% CO2 and cell density was monitored until ^~90% confluency was reached. Compounds were serially diluted at a 1:3 ratio and dispensed into each well at final concentrations ranging from […] to 1.5 nM. After incubation for 24 hours, the culture media were removed and the cells were subjected to fixation, permeabilization and blocking (Intercept blocking buffer, Li-cor). For KRAS (G12D) degradation, the cells were treated with primary antibody (KRAS G12D antibody, Cell Signaling Technologies, Cat. No. CST14429) and for β-actin (β-actin mAb, Beyotime, Cat. No. AF-5001), and followed by secondary antibodies, Anti-rabbit IgG (H+L) (DyLight™ 800 4×PEG Conjugate) or IRDye® 680RD Goat anti-Mouse IgG. For pERK inhibition assay, cells were treated with primary antibodies for pERK (Phospho-p44/42 MAPK (Erk1/2) (Thr202/Tyr204) (D13.14.4E) XP® Rabbit mAb, Cell Signaling Technologies, Cat. No. CST-4370) and β-actin (β-actin mAb, Beyotime, Cat. No. AF-5001), and followed by secondary antibodies, Anti-rabbit IgG (H+L) (DyLight™ 800 4×PEG Conjugate) or IRDye® 680RD Goat anti-Mouse IgG. Fluorescence signals were read on Odyssey CLX instrument. For cell proliferation assays, cells were seeded into a 96-well plate at 3,500 and 800 cells/well for assays in ASPC-1 and PK-59, respectively. Cells were incubated at 37° C. with 5% CO2 for overnight. Compounds were serially diluted at a 1:3 ratio and dispensed into each well at final concentrations ranging from […] to 1.5 nM. After incubation for 6 days, cell viability reagent (CellTiter Glo, Promega, Cat. No. G7573) was added to each well and luminescence was recorded on Molecular Devices Spectramax iD3 instrument. IC50, half-maximal inhibitory concentration for pERK inhibition or cell proliferation, and DC50, half-maximal degradation concentration in KRAS (G12D) cellular degradation were determined by fitting the corresponding dose response curves using GraphPad Prism software.
Wherein “A” means the value <10 nM, “B” means 10 nM<the value <100 nM, “C” means 100 nM<the value <1000 nM, and “D” means the value >1000 nM, in which, the value means the value of DC50 or IC50. NT means not tested.
(ATP-based viability assays read luminescence as a measure of living cells.)

T1 sequence (P01116 1-188 isoform P01116-2 G12D): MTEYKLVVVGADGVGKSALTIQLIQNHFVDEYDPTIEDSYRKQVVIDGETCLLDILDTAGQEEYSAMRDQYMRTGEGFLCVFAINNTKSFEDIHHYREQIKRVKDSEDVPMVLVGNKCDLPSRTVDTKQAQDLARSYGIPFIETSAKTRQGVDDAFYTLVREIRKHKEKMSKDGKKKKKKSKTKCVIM

As for `CCn1nccc1-c1ccc([C@H](CO)NC(=O)[C@@H]2C[C@@H](O)CN2C(=O)[C@H](C(C)C)n2cc(-c3ccc(COc4c(-c5c(C)c(F)cc6[nH]ncc56)c(C5CC5)cc5c(N6C[C@H]7C[C@@H]6CN7)nc(OC[C@H](C)OC)nc45)cc3)nn2)cc1` (single isomer, unassigned) [Example 1A], the DC50 on KRAS (G12D) was less than 10 nM. The same molecule yielded an IC50 in the experiment with AsPC-1 cells of less than 10 nM.
For the molecule `CCn1nccc1-c1ccc([C@H](CO)NC(=O)[C@@H]2C[C@@H](O)CN2C(=O)[C@H](C(C)C)n2cc(-c3ccc(COc4c(-c5c(C)c(F)cc6[nH]ncc56)c(C5CC5)cc5c(N6C[C@H]7C[C@@H]6CN7)nc(OC[C@H](C)OC)nc45)cc3)nn2)cc1` (single isomer, unassigned) [Example 1B], the half-maximal degradation concentration (DC50) on KRAS (G12D) was greater than 1000 nM. The 50% inhibitory concentration (IC50) in the experiment on AsPC-1 cells was greater than 1000 nM.
For the molecule `CO[C@@H](C)COc1nc(N2C[C@H]3C[C@@H]2CN3)c2cc(C3CC3)c(-c3c(C)c(F)cc4[nH]ncc34)c(OCc3ccc(-c4cn([C@H](C(=O)N5C[C@H](O)C[C@H]5C(=O)N[C@@H](CO)c5ccc(-c6scnc6C)cc5)C(C)C)nn4)cc3)c2n1` (single isomer, unassigned) [Example 2A], at KRAS (G12D), the 50% degradation concentration (DC50) was less than 10 nM. In the experiment with AsPC-1 cells, this molecule came in with an IC50 of less than 10 nM.
As for `CO[C@@H](C)COc1nc(N2C[C@H]3C[C@@H]2CN3)c2cc(C3CC3)c(-c3c(C)c(F)cc4[nH]ncc34)c(OCc3ccc(-c4cn([C@H](C(=O)N5C[C@H](O)C[C@H]5C(=O)N[C@@H](CO)c5ccc(-c6scnc6C)cc5)C(C)C)nn4)cc3)c2n1` (single isomer, unassigned) [Example 2B], at KRAS (G12D), the DC50 is greater than 1000 nM. Also, in the experiment on AsPC-1 cells, the concentration for half-maximal inhibition (IC50) was greater than 1000 nM.
Molecule `CO[C@@H](C)COc1nc(N2C[C@H]3C[C@@H]2CN3)c2cc(C3CC3)c(-c3c(C)c(F)cc4[nH]ncc34)c(OCc3ccc(-c4cn([C@H](C(=O)N5C[C@H](O)C[C@H]5C(=O)N[C@@H](C)c5ccc(-c6scnc6C)cc5)C(C)C)nn4)cc3)c2n1` (single isomer, unassigned) [Example 3A] came in with a DC50 on KRAS (G12D) of less than 10 nM. This molecule gave an IC50 in the experiment with AsPC-1 cells of 10 to 100 nM.
On KRAS (G12D), `CO[C@@H](C)COc1nc(N2C[C@H]3C[C@@H]2CN3)c2cc(C3CC3)c(-c3c(C)c(F)cc4[nH]ncc34)c(OCc3ccc(-c4cn([C@H](C(=O)N5C[C@H](O)C[C@H]5C(=O)N[C@@H](C)c5ccc(-c6scnc6C)cc5)C(C)C)nn4)cc3)c2n1` (single isomer, unassigned) [Example 3B] yielded a DC50 greater than 1000 nM. The molecule also showed a 50% inhibitory concentration (IC50) in the experiment with AsPC-1 cells greater than 1000 nM.
On to `CCn1nccc1-c1ccc([C@H](C)NC(=O)[C@@H]2C[C@@H](O)CN2C(=O)[C@H](C(C)C)n2cc(-c3ccc(COc4c(-c5c(C)c(F)cc6[nH]ncc56)c(C5CC5)cc5c(N6C[C@H]7C[C@@H]6CN7)nc(OC[C@H](C)OC)nc45)cc3)nn2)cc1` (single isomer, unassigned) [Example 4A], for which, at KRAS (G12D), the DC50 was less than 10 nM. The molecule further had a concentration for half-maximal inhibition (IC50) in the experiment with AsPC-1 cells of 10 to 100 nM.
The corresponding values for `CCn1nccc1-c1ccc([C@H](C)NC(=O)[C@@H]2C[C@@H](O)CN2C(=O)[C@H](C(C)C)n2cc(-c3ccc(COc4c(-c5c(C)c(F)cc6[nH]ncc56)c(C5CC5)cc5c(N6C[C@H]7C[C@@H]6CN7)nc(OC[C@H](C)OC)nc45)cc3)nn2)cc1` (single isomer, unassigned) [Example 4B] are greater than 1000 nM and greater than 1000 nM.
The molecule `CO[C@@H](C)COc1nc(N2C[C@H]3C[C@@H]2CN3)c2cc(C3CC3)c(-c3c(C)c(F)cc4n[nH]cc34)c(OCc3ccc(-c4cn([C@H](C(=O)N5C[C@H](O)C[C@H]5C(=O)N[C@@H](CO)c5ccc(-c6c(C)noc6C)cc5)C(C)C)nn4)cc3)c2n1` (single isomer, unassigned) [Example 6A] yielded a DC50 at KRAS (G12D) of 10 to 100 nM. Also, the IC50 in the experiment on AsPC-1 cells (Homo sapiens, ASPC1, 144 h) fell in the range of 10 to 100 nM.
In the case of `CCn1nccc1-c1ccc(CNC(=O)[C@@H]2C[C@@H](O)CN2C(=O)[C@H](C(C)C)n2cc(-c3ccc(COc4c(-c5c(C)c(F)cc6[nH]ncc56)c(C5CC5)cc5c(N6C[C@H]7C[C@@H]6CN7)nc(OC[C@H](C)OC)nc45)cc3)nn2)cc1` (single isomer, unassigned) [Example 7A], the DC50 on KRAS (G12D) is 10 to 100 nM. The IC50 with AsPC-1 cells (Homo sapiens, ASPC1, 144 h) was in the range of 10 to 100 nM.
As to `CCn1nccc1-c1ccc([C@H](CO)NC(=O)[C@@H]2C[C@@H](O)CN2C(=O)[C@H](C(C)C)n2cc(-c3ccc(COc4c(-c5c(C)c(F)cc6[nH]ncc56)c(C5CC5)cc5c(N6CC7CCC(C6)N7)nc(OC[C@H](C)OC)nc45)cc3)nn2)cc1` (single isomer, unassigned) [Example 8], the DC50 at KRAS (G12D) was in the range of 10 to 100 nM. The same molecule returned an IC50 in the experiment with AsPC-1 cells of 10 to 100 nM.
Molecule `CCn1nccc1-c1ccc([C@H](CO)NC(=O)[C@@H]2C[C@@H](O)CN2C(=O)[C@H](C(C)C)n2cc(-c3ccc(COc4c(-c5c(C)c(F)cc6[nH]ncc56)c(C5CC5)cc5c(N6CC7CCC(C6)N7)nc(OC[C@H](C)OC)nc45)cc3)nn2)cc1` (single isomer, unassigned) [Example 9] had a DC50 at KRAS (G12D) of 10 to 100 nM. The molecule further returned an IC50 with AsPC-1 cells greater than 1000 nM.
Regarding `CO[C@@H](C)COc1nc(N2C[C@H]3C[C@@H]2CN3)c2cc(C3CC3)c(-c3c(C)c(F)cc4[nH]ncc34)c(OCc3ccc(-c4cn([C@H](C(=O)N5C[C@H](O)C[C@H]5C(=O)NCc5ccc(-c6scnc6C)cc5)C(C)C)nn4)cc3)c2n1` (single isomer, unassigned) [Example 11A], the 50% degradation concentration (DC50) on KRAS (G12D) lay within 10 to 100 nM. Further, the IC50 in the experiment on AsPC-1 cells (Homo sapiens, ASPC1, 144 h) lay in the range of 10 to 100 nM.
At KRAS (G12D), `CO[C@@H](C)COc1nc(N2CC3CCC(C2)N3)c2cc(C3CC3)c(-c3c(C)c(F)cc4[nH]ncc34)c(OCc3ccc(-c4cn([C@H](C(=O)N5C[C@H](O)C[C@H]5C(=O)N[C@@H](CO)c5ccc(-c6scnc6C)cc5)C(C)C)nn4)cc3)c2n1` (single isomer, unassigned) [Example 12A] had a DC50 of 10 to 100 nM. The IC50 in the experiment on AsPC-1 cells (Homo sapiens, ASPC1, 144 h) lay in the range of 10 to 100 nM.
Consider `CCn1nccc1-c1ccc([C@H](CO)NC(=O)[C@@H]2C[C@@H](O)CN2C(=O)[C@H](C(C)C)n2cc(-c3ccc(COc4c(-c5c(C)c(F)cc6[nH]ncc56)c(C5CC5)cc5c(N6CC7CCC(C6)N7)nc(OC[C@H](C)OC)nc45)cc3)nn2)cc1` (single isomer, unassigned) [Example 13A], for which the DC50 at KRAS (G12D) was in the range of 10 to 100 nM. The half-inhibitory concentration (IC50) in the experiment on AsPC-1 cells (Homo sapiens, ASPC1, 144 h) lay within 10 to 100 nM.
`CO[C@@H](C)COc1nc(N2C[C@@H]3CN[C@@H](C3)C2)c2cc(C3CC3)c(-c3c(C)c(F)cc4[nH]ncc34)c(OCc3ccc(-c4cn([C@H](C(=O)N5C[C@H](O)C[C@H]5C(=O)N[C@@H](CO)c5ccc(-c6scnc6C)cc5)C(C)C)nn4)cc3)c2n1` [Example 230, (2S,4R)-1-((2S)-2-(4-(4-(((4-((1S,5S)-3,6-diazabicyclo[3.2.1]octan-3-yl)-6-cyclopropyl-7-(6-fluoro-5-methyl-1H-indazol-4-yl)-2-((S)-2-methoxypropoxy)quinazolin-8-yl)oxy)methyl)phenyl)-1H-1,2,3-triazol-1-yl)-3-methylbutanoyl)-4-hydroxy-N—((R)-2-hydroxy-1-(4-(4-methylthiazol-5-yl)phenyl)ethyl)pyrrolidine-2-carboxamide] came in with a 50% degradation concentration (DC50) at KRAS (G12D) of 10 to 100 nM.
